Source: US20230024096A1, “BIFUNCTIONAL COMPOUNDS FOR THE TREATMENT OF CANCER” (Hoffmann-La Roche Inc., priority 2019, published 2023)

Biological target: T1, SMARCA2 (Homo sapiens, UniProt P51531)
T1 construct: endogenous in cells; host or cells: HT1080 (CRISPR HiBiT knock-in clone, generated in house)
Assay: SMARCA2 HiBiT degradation assay (cellular)
Type: cell-based
Details: table head names A549; for DC50: 6 h incubation, HiBiT-tagged SMARCA2, luminescence read-out, read-out: HiBit A549 SMARCA2 IP (nM) 6 h; for Emax: A549, 6 h incubation, Emax = amount of residual protein remaining in the cell following compound treatment

T1 sequence (P51531 whole entry): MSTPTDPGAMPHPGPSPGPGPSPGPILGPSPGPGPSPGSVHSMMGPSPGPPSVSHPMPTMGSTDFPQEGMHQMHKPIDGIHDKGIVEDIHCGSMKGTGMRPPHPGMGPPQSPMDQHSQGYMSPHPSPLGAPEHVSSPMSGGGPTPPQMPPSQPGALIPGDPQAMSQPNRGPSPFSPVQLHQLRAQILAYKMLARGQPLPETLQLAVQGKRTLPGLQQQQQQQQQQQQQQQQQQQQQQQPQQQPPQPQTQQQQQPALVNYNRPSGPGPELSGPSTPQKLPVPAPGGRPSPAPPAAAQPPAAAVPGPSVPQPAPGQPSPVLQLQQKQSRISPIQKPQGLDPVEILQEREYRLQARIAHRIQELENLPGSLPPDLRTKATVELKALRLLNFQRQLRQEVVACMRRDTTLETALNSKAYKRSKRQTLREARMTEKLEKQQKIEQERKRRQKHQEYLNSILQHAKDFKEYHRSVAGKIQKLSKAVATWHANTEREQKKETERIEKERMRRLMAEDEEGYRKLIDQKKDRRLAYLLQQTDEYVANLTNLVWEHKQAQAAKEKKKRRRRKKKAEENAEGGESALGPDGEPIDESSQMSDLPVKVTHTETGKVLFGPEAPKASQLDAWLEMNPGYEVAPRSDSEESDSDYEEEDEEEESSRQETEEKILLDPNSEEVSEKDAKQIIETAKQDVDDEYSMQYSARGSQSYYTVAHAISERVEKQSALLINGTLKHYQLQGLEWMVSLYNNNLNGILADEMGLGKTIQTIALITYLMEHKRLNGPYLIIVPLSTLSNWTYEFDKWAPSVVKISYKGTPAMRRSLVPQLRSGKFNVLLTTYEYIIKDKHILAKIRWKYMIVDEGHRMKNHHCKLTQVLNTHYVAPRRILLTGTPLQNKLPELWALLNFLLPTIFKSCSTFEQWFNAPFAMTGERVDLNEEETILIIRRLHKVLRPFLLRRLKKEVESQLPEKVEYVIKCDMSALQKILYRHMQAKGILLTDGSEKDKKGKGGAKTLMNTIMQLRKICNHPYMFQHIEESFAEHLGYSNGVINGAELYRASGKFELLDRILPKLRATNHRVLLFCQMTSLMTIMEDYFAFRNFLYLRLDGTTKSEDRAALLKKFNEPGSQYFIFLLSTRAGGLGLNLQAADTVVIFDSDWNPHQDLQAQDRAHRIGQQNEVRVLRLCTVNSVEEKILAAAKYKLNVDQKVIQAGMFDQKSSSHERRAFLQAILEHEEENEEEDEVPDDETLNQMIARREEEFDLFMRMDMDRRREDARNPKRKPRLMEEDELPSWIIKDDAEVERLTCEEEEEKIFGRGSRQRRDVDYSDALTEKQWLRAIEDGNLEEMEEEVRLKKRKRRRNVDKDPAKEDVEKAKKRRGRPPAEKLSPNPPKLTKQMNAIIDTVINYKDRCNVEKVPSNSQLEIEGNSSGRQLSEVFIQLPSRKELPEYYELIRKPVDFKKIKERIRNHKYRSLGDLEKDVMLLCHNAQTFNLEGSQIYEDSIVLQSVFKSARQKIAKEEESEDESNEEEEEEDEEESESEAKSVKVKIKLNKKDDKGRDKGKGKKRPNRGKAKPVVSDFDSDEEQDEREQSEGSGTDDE

| DC50 | Emax | Structure (SMILES) |
| --- | --- | --- |
| 423 nM | 42% | Nc1nnc(-c2ccccc2O)cc1N1CCC2(CC1)CN(C(=O)CCCCCCCCCCCn1cc(CNc3cccc4c3C(=O)N(C3CCC(=O)NC3=O)C4=O)nn1)CCO2 (centres unmarked) [Example 7, 4-[[1-[12-[9-[3-amino-6-(2-hydroxyphenyl)pyridazin-4-yl]-1-oxa-4,9-diazaspiro[5.5]undecan-4-yl]-12-oxo-dodecyl]triazol-4-yl]methylamino]-2-(2,6-dioxo-3-piperidyl)isoindoline-1,3-dione] |
| 28 nM | 38% | Nc1nnc(-c2ccccc2O)cc1N1CCC(C(=O)N2CC3(CCN(C(=O)CN4CCC(c5ccc(NC6CCC(=O)NC6=O)cc5)CC4)CC3)C2)(c2ccccc2)CC1 (centres unmarked) [Example 165, 3-((4-(1-(2-(2-(1-(3-amino-6-(2-hydroxyphenyl)pyridazin-4-yl)-4-phenylpiperidine-4-carbonyl)-2,7-diazaspiro[3.5]nonan-7-yl)-2-oxoethyl)piperidin-4-yl)phenyl)amino)piperidine-2,6-dione] |
| 149 nM | 44% | Nc1nnc(-c2ccccc2O)cc1OC1CCCN(c2ccc(N3CCN(C(=O)CCCCCCCCCCCn4cc(CNc5cccc6c5C(=O)N(C5CCC(=O)NC5=O)C6=O)nn4)CC3)cc2)C1 (centres unmarked) [Example 4, 4-[[1-[12-[4-[4-[3-[3-amino-6-(2-hydroxyphenyl)pyridazin-4-yl]oxy-1-piperidyl]phenyl]piperazin-1-yl]-12-oxo-dodecyl]triazol-4-yl]methylamino]-2-(2,6-dioxo-3-piperidyl)isoindoline-1,3-dione] |
| 57 nM | 34% | Nc1nnc(-c2ccccc2O)cc1OC1CCCN(c2ccc(N3CCN(CCCCCCCCCn4cc(CNc5cccc6c5C(=O)N(C5CCC(=O)NC5=O)C6=O)nn4)CC3)cc2)C1 (centres unmarked) [Example 37, 4-[[1-[9-[4-[4-[3-[3-amino-6-(2-hydroxyphenyl)pyridazin-4-yl]oxy-1-piperidyl]phenyl]piperazin-1-yl]nonyl]triazol-4-yl]methylamino]-2-(2,6-dioxo-3-piperidyl)isoindoline-1,3-dione] |
| 102 nM | 38% | Nc1nnc(-c2ccccc2O)cc1N1CCC(C(=O)NCC2CCN(C(=O)CN3CCC(c4ccc(NC5CCC(=O)NC5=O)cc4)CC3)CC2)(c2ccccc2)CC1 (centres unmarked) [Example 102, 1-[3-amino-6-(2-hydroxyphenyl)pyridazin-4-yl]-N-[[1-[2-[4-[4-[(2,6-dioxopiperidin-3-yl)amino]phenyl]piperidin-1-yl]acetyl]piperidin-4-yl]methyl]-4-phenylpiperidine-4-carboxamide] |
| 276 nM | 52% | Nc1nnc(-c2ccccc2O)cc1OC1CCCN(c2ccc(N3CCN(CCCCCCCCCn4cc(CCNc5cccc6c5C(=O)N(C5CCC(=O)NC5=O)C6=O)nn4)CC3)cc2)C1 (centres unmarked) [Example 110, 4-[2-[1-[9-[4-[4-[3-[3-amino-6-(2-hydroxyphenyl)pyridazin-4-yl]oxy-1-piperidyl]phenyl]piperazin-1-yl]nonyl]triazol-4-yl]ethylamino]-2-(2,6-dioxo-3-piperidyl)isoindoline-1,3-dione] |
| 157 nM | 45% | Nc1nnc(-c2ccccc2O)cc1OC1CCCN(c2ccc(OCCN3CCN(C(=O)CCCCCCCCCCCn4cc(CNc5cccc6c5C(=O)N(C5CCC(=O)NC5=O)C6=O)nn4)CC3)cc2)C1 (centres unmarked) [Example 23, 4-[[1-[12-[4-[2-[4-[3-[3-amino-6-(2-hydroxyphenyl)pyridazin-4-yl]oxy-1-piperidyl]phenoxy]ethyl]piperazin-1-yl]-12-oxo-dodecyl]triazol-4-yl]methylamino]-2-(2,6-dioxo-3-piperidyl)isoindoline-1,3-dione] |
| 133 nM | 61% | Nc1nnc(-c2ccccc2O)cc1OC1CCCN(c2ccc(N3CCN(C(=O)CCCCCCCCN4CCC(Oc5ccc6c(c5)C(=O)N(C5CCC(=O)NC5=O)C6=O)CC4)CC3)cc2)C1 (centres unmarked) [Example 44, 5-[[1-[9-[4-[4-[3-[3-amino-6-(2-hydroxyphenyl)pyridazin-4-yl]oxy-1-piperidyl]phenyl]piperazin-1-yl]-9-oxo-nonyl]-4-piperidyl]oxy]-2-(2,6-dioxo-3-piperidyl)isoindoline-1,3-dione] |
| 907 nM | 39% | CC(Oc1cccc2c1C(=O)N(C1CCC(=O)NC1=O)C2=O)c1cn(CCC(=O)N2CCN(CCCN3CCN(c4ccc(N5CCC[C@H](Oc6cc(-c7ccccc7O)nnc6N)C5)cc4)CC3)CC2)nn1 (mixture of isomers) [Example 204, 2-(2,6-dioxo-3-piperidyl)-4-[1-[1-[3-oxo-3-[4-[3-[4-[4-[rac-(3S)-3-[3-amino-6-(2-hydroxyphenyl)pyridazin-4-yl]oxy-1-piperidyl]phenyl]piperazin-1-yl]propyl]piperazin-1-yl]propyl]triazol-4-yl]ethoxy]isoindoline-1,3-dione] |
| 101 nM | 51% | Nc1nnc(-c2ccccc2O)cc1N1CC(Oc2cccc(N3CCN(C(=O)CN4CCC(c5ccc(NC6CCC(=O)NC6=O)cc5)CC4)CC3)c2)C1 (racemic) [Example 112, rac-3-[4-[1-[2-[4-[3-[1-[3-amino-6-(2-hydroxyphenyl)pyridazin-4-yl]azetidin-3-yl]oxyphenyl]piperazin-1-yl]-2-oxo-ethyl]-4-piperidyl]anilino]piperidine-2,6-dione] |
| 81 nM | 48% | Nc1nnc(-c2ccccc2O)cc1N1CCN(c2ccccc2)C(C(=O)NC2CCN(C(=O)C3CCN(c4ccc5c(c4)C(=O)N(C4CCC(=O)NC4=O)C5=O)CC3)CC2)C1 (centres unmarked) [Example 87, 4-(3-amino-6-(2-hydroxyphenyl)pyridazin-4-yl)-N-(1-(1-(2-(2,6-dioxopiperidin-3-yl)-1,3-dioxoisoindolin-5-yl)piperidine-4-carbonyl)piperidin-4-yl)-1-phenylpiperazine-2-carboxamide] |

| Structure (SMILES) | DC50 | Emax |
| --- | --- | --- |
| Nc1nnc(-c2ccccc2O)cc1N1CC2CCC(C1)N2c1cccc(OCCN2CCN(C(=O)CN3CCC(c4ccc(NC5CCC(=O)NC5=O)cc4)CC3)CC2)c1 (racemic) [Example 79, rac-3-[4-[1-[2-[4-[2-[3-[3-[3-amino-6-(2-hydroxyphenyl)pyridazin-4-yl]-3,8-diazabicyclo[3.2.1]octan-8-yl]phenoxy]ethyl]piperazin-1-yl]-2-oxo-ethyl]-4-piperidyl]anilino]piperidine-2,6-dione] | 19 nM | 46% |
| Nc1nnc(-c2ccccc2O)cc1N1CC2CCC(C1)N2c1cccc(CN2CCN(C(=O)C3CN(c4ccc5c(c4)C(=O)N(C4CCC(=O)NC4=O)C5=O)C3)CC2)c1 (racemic) [Example 179, rac-5-[3-[4-[[3-[3-[3-amino-6-(2-hydroxyphenyl)pyridazin-4-yl]-3,8-diazabicyclo[3.2.1]octan-8-yl]phenyl]methyl]piperazine-1-carbonyl]azetidin-1-yl]-2-(2,6-dioxo-3-piperidyl)isoindoline-1,3-dione] | 100 nM | 39% |
| Nc1nnc(-c2ccccc2O)cc1N1CC2CCC(C1)N2c1cccc(OCCN2CCN(C(=O)C3CC4(C3)CN(c3ccc5c(c3)C(=O)N(C3CCC(=O)NC3=O)C5=O)C4)CC2)c1 (racemic) [Example 61, rac-5-[6-[4-[2-[3-[3-[3-amino-6-(2-hydroxyphenyl)pyridazin-4-yl]-3,8-diazabicyclo[3.2.1]octan-8-yl]phenoxy]ethyl]piperazine-1-carbonyl]-2-azaspiro[3.3]heptan-2-yl]-2-(2,6-dioxo-3-piperidyl)isoindoline-1,3-dione] | 100 nM | 53% |
| Nc1nnc(-c2ccccc2O)cc1N1CC2CCC(C1)N2c1cccc(OC2CCC(CC(=O)N3CC4(C3)CN(C(=O)C3CCN(c5ccc6c(c5)C(=O)N(C5CCC(=O)NC5=O)C6=O)CC3)C4)CC2)c1 (racemic) [Example 31, rac-5-[4-[6-[2-[4-[3-[3-[3-amino-6-(2-hydroxyphenyl)pyridazin-4-yl]-3,8-diazabicyclo[3.2.1]octan-8-yl]phenoxy]cyclohexyl]acetyl]-2,6-diazaspiro[3.3]heptane-2-carbonyl]-1-piperidyl]-2-(2,6-dioxo-3-piperidyl)isoindoline-1,3-dione] | 383 nM | 55% |
| Nc1nnc(-c2ccccc2O)cc1N1CC2CCC(C1)N2c1cccc(OCCN2CCN(C(=O)CCC3CCN(c4ccc5c(c4)C(=O)N(C4CCC(=O)NC4=O)C5=O)CC3)CC2)c1 (racemic) [Example 14, rac-5-[4-[3-[4-[2-[3-[3-[3-amino-6-(2-hydroxyphenyl)pyridazin-4-yl]-3,8-diazabicyclo[3.2.1]octan-8-yl]phenoxy]ethyl]piperazin-1-yl]-3-oxo-propyl]-1-piperidyl]-2-(2,6-dioxo-3-piperidyl)isoindoline-1,3-dione] | 31 nM | 45% |
| Nc1nnc(-c2ccccc2O)cc1N1CC2CCC(C1)N2c1cccc(OCCN2CCN(C(=O)CN3CCC(c4ccc(OC5CCC(=O)NC5=O)cn4)CC3)CC2)c1 (centres unmarked) [Example 198, 3-[[6-[1-[2-[4-[2-[3-[3-[3-amino-6-(2-hydroxyphenyl)pyridazin-4-yl]-3,8-diazabicyclo[3.2.1]octan-8-yl]phenoxy]ethyl]piperazin-1-yl]-2-oxo-ethyl]-4-piperidyl]-3-pyridyl]oxy]piperidine-2,6-dione] | 277 nM | 68% |
| Nc1nnc(-c2ccccc2O)cc1N1CC2CCC(C1)N2c1cccc(CN2CCN(C(=O)CN3CCC(c4ccc(NC5CCC(=O)NC5=O)cc4)CC3)CC2)c1 (racemic) [Example 149, rac-3-[4-[1-[2-[4-[[3-[3-[3-Amino-6-(2-hydroxyphenyl)pyridazin-4-yl]-3,8-diazabicyclo[3.2.1]octan-8-yl]phenyl]methyl]piperazin-1-yl]-2-oxo-ethyl]-4-piperidyl]anilino]piperidine-2,6-dione] | 18 nM | 40% |
| Nc1nnc(-c2ccccc2O)cc1N1CC2CCC(C1)N2c1cccc(CN2CCN(C(=O)C3CCN(c4ccc5c(c4)C(=O)N(C4CCC(=O)NC4=O)C5=O)CC3)CC2)n1 (racemic) [Example 131, rac-5-[4-[4-[[6-[3-[3-amino-6-(2-hydroxyphenyl)pyridazin-4-yl]-3,8-diazabicyclo[3.2.1]octan-8-yl]-2-pyridyl]methyl]piperazine-1-carbonyl]-1-piperidyl]-2-(2,6-dioxo-3-piperidyl)isoindoline-1,3-dione] | 27 nM | 32% |
